# Like-named read-outs stand apart in the source and are kept apart here.
# Tests used:
# [1] = test system: Burkholderia glumae; type: in vivo
# [2] = test system: Burkholderia glumae; conditions: rice, 150 g ai/ha, 1 spray, 29 days after the 1st spray
# [3] = rice at harvest, 150 g ai/ha, 2 sprays
Structure (SMILES),"Yield (% of untreated) [1, 3] [%]","Yield T/ha [1, 3] [T/ha]","% efficacy (Abbott), Burkholderia glumae incidence on panicles ([1]; rice, 150 g ai/ha, 2 sprays, 44 days after the 2nd spray) [%]","% efficacy (Abbott), Burkholderia glumae incidence on panicles [2] [%]","final yield increase ([1]; rice, harvest trial, Isotianil treated plots)"
CCC1(C(=O)N[C@H](C)c2ccc(Cl)cc2)C(C)C1(Cl)Cl (some centres unmarked) [CARPROPAMID],108,9.06,43,36,
"N#Cc1ccccc1NC(=O)c1snc(Cl)c1Cl [Isotianil, isotianil]",,,,,about 20%
